In patent US8318749B2, “Quinazoline derivatives as NK3 receptor antagonists” (Hoffmann-La Roche Inc., priority 2008, dated 2012) one finds Ki data, which are given here for 24 compounds.

This test deals with T1, recombinant human NK3 receptor (Homo sapiens, UniProt P29371).
T1 construct: expressed in transfected cells; host or cells: HEK293 cells (transient expression), membrane preparation
T1 sequence (P29371 1-465): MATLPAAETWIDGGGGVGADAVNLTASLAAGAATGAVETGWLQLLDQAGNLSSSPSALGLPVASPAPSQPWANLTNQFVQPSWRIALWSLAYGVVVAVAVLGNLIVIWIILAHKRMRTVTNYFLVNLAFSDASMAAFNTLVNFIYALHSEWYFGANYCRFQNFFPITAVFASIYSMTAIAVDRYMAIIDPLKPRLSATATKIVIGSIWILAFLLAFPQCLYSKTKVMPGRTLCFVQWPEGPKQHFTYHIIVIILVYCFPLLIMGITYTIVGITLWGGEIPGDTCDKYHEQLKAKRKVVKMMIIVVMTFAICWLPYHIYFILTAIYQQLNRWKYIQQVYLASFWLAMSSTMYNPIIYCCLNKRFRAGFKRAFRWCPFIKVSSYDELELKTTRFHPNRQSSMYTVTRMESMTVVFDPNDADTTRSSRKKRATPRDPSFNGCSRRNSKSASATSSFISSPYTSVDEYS
Description: [3H]SR142801 competition binding assay. The note with it: membrane from HEK293 cells transiently expressing recombinant human NK3 receptor; radioligand [3H]SR142801; 75 min at RT. As to the method:
[^3H]SR142801 Competition Binding Assay
hNK3 receptor binding experiment were performed using [^3H]SR142801 (Catalog No. TRK1035, specific activity: 74.0 Ci/mmol, Amersham, GE Healthcare UK limited, Buckinghamshire, UK) and membrane isolated from HEK293 cells transiently expressing recombinant human NK3 receptor. After thawing, the membrane homogenates were centrifuged at 48,000×g for 10 min at 4° C., the pellets were resuspended in the 50 mM Tris-HCl, 4 mM MnCl2, 1 μM phosphoramidon, 0.1% BSA binding buffer at pH 7.4 to a final assay concentration of 5 μg protein/well. […] At the end of the incubation, membranes were filtered onto unitfilter (96-well white microplate with bonded GF/C filter preincubated 1 h in 0.3% PEI+0.3% BSA, Packard BioScience, Meriden, Conn.) with a Filtermate 196 harvester (Packard BioScience) and washed 4 times with ice-cold 50 mM Tris-HCl, pH 7.4 buffer. Nonspecific binding was measured in the presence of 10 μM SB222200 for both radioligands. The radioactivity on the filter was counted (5 min) on a Packard Top-count microplate scintillation counter with quenching correction after addition of 45 μl of microscint 40 (Canberra Packard S.A., Zürich, Switzerland) and shaking for 1 h. Inhibition curves were fitted according to the Hill equation: y=100/(1+(x/IC50)^nH), where nH=slope factor using Excel-fit 4 software (Microsoft). IC50 values were derived from the inhibition curve and the affinity constant (Ki) values were calculated using the Cheng-Prussoff equation Ki=IC50/(1+[L]/KD) where [L] is the concentration of radioligand and KD is its dissociation constant at the receptor, derived from the saturation isotherm. All experiments were performed in duplicate and the mean±standard error (SEM) of the individual Ki values was calculated.
In the case of `COc1cc2nc(N3CCC(Cc4ccccc4)(C(=O)NC(CO)c4ccccc4)CC3)nc(N)c2cc1OC` (stereo not drawn) [Example 41, 1-(4-Amino-6,7-dimethoxy-quinazolin-2-yl)-4-benzyl-piperidine-4-carboxylic acid (2-hydroxy-1-phenyl-ethyl)-amide], the Ki came to 48.7 nM.
To `COc1cc2nc(N3CCC(CC4CC4)(C(=O)NCc4ccccc4)CC3)nc(O)c2cc1OC` [Example 72, 4-Cyclopropylmethyl-1-(4-hydroxy-6,7-dimethoxy-quinazolin-2-yl)-piperidine-4-carboxylic acid benzylamide] belongs 38.3 nM; to `COc1cc2nc(N3CCC(CC4CC4)(C(=O)N(C)Cc4ccccc4)CC3)nc(O)c2cc1OC` [Example 75, 4-Cylcopropylmethyl-1-(4-hydroxy-6,7-dimethoxy-quinazolin-2-yl)-piperidine-4-carobxylic acid benzyl-methyl-amide], 47.8 nM; to `COc1cc2nc(N3CCC(Cc4ccccc4)(C(=O)NCC4CCC4)CC3)nc(O)c2cc1OC` [Example 67, 4-Benzyl-1-(4-hydroxy-6,7-dimethoxy-quinazolin-2-yl)-piperidine-4-carboxylic acid cyclobutylmethyl-amide], 47.9 nM.
To `COc1cc2nc(N3CCC(CC4CCC4)(C(=O)NC4CCc5ccccc5C4)CC3)nc(O)c2cc1OC` (stereo not drawn) [Example 77, 4-Cylcobutylmethyl-1-(4-hydroxy-6,7-dimethoxy-quinazolin-2-yl)-piperidine-4-carboxylic acid (1,2,3,4-tetrahydro-naphthalen-2-yl)-amide] belongs 36.2 nM; to `COc1cc2nc(N3CCC(CC4CCC4)(C(=O)NCc4ccccc4)CC3)nc(O)c2cc1OC` [Example 76, 4-Cyclobutylmethyl-1-(4-hydroxy-6,7-dimethoxy-quinazolin-2-yl)-piperidine-4-carboxylic acid benzylamide], 5.8 nM; to `COc1cc2nc(N3CCC(CC(C)C)(C(=O)NCc4ccccc4)CC3)nc(N)c2cc1OC` [Example 70, 1-(4-Amino-6,7-dimethoxy-quinazolin-2-yl)-4-isobutyl-piperidine-4-carboyxlic acid benzylamide], 64 nM.
Regarding `O=C(NCc1ccccc1)C1(Cc2ccccc2)CCN(c2nc(O)c3ccc(OC(F)F)cc3n2)CC1` [Example 89, 4-Benzyl-1-(7-difluoromethoxy-4-hydroxy-quinazolin-2-yl)-piperidine-4-carboxylic acid benzylamide], the Ki turned out to be 11.5 nM.
To `COc1cc2nc(N3CCC(CC4CCC4)(C(=O)N(C)Cc4ccccc4)CC3)nc(O)c2cc1OC` [Example 80, 4-Cyclobutylmethyl-1-(4-hydroxy-6,7-dimethoxy-quinazolin-2-yl)-piperidine-4-carboxylic acid benzyl-methyl-amide] belongs 7.6 nM.
To `COc1ccc2c(O)nc(N3CCC(Cc4ccccc4)(C(=O)NCc4ccccc4)CC3)nc2c1` [Example 95, 4-Benzyl-1-(4-hydroxy-7-methoxy-quinazolin-2-yl)-piperidine-4-carboxylic acid benzylamide] belongs 5.1 nM; to `COc1cc2nc(N3CCC(Cc4ccccc4)(C(=O)NCc4ccc(Cl)c(Cl)c4)CC3)nc(N)c2cc1OC` [Example 28, 1-(4-Amino-6,7-dimethoxy-quinazolin-2-yl)-4-benzyl-piperidine-4-carboxylic acid 3,4-dichloro-benzylamide], 52.4 nM; to `COc1cc2nc(N3CCC(Cc4ccccc4)(C(=O)NCc4ccco4)CC3)nc(N)c2cc1OC` [Example 46, 1-(4-Amino-6,7-dimethoxy-quinazolin-2-yl)-4-benzyl-piperidine-4-carboxylic acid (furan-2-ylmethyl)-amide], 43.8 nM.
Consider `COc1cc2nc(N3CCC(Cc4ccccc4)(C(=O)NCc4ccccc4)CC3)nc(O)c2cc1C#N` [Example 97, 4-Benzyl-1-(6-cyano-4-hydroxy-7-methoxy-quinazolin-2-yl)-piperidine-4-carboxylic acid benzylamide], for which the Ki came out at 15.8 nM.
To `COc1cc2nc(N3CCC(Cc4ccccc4)(C(=O)NC4Cc5ccccc5C4)CC3)nc(O)c2cc1OC` [Example 55, 4-Benzyl-1-(4-hydroxy-6,7-dimethoxy-quinazolin-2-yl)-piperidine-4-carboxylic acid indan-2-ylamide] belongs 11.1 nM; to `COc1cc2nc(N3CCC(Cc4ccccc4)(C(=O)NCc4cccnc4)CC3)nc(N)c2cc1OC` [Example 1, 1-(4-Amino-6,7-dimethoxy-quinazolin-2-yl)-4-benzyl-piperidine-4-carboxylic acid (pyridin-3-ylmethyl)-amide], 90.9 nM; to `COc1cc2nc(N3CCC(Cc4ccccc4)(C(=O)Nc4cnn(C)c4)CC3)nc(O)c2cc1OC` [Example 59, 4-Benzyl-1-(4-hydroxy-6,7-dimethoxy-quinazolin-2-yl)-piperidine-4-carboxylic acid (1-methyl-1H-pyrazol-4-yl)-amide], 39.1 nM.
To `COc1cc2nc(N3CCC(Cc4ccccc4)(C(=O)NC4CCCc5ccccc54)CC3)nc(N)c2cc1OC` (stereo not drawn) [Example 23, 1-(4-Amino-6,7-dimethoxy-quinazolin-2-yl)-4-benzyl-piperidine-4-carboxylic acid (1,2,3,4-tetrahydro-naphthalen-1-yl)-amide] belongs 46.6 nM; to `COc1cc2nc(N3CCC(Cc4ccccc4)(C(=O)NC(C)c4ccc(Cl)cc4)CC3)nc(N)c2cc1OC` (stereo not drawn) [Example 25, 1-(4-Amino-6,7-dimethoxy-quinazolin-2-yl)-4-benzyl-piperidine-4-carboxylic acid [1-(4-chloro-phenyl)-ethyl]-amide], 95.1 nM; to `O=C(NCc1ccccc1)C1(Cc2ccccc2)CCN(c2nc(O)c3ccc(OC(F)(F)F)cc3n2)CC1` [Example 99, 4-Benzyl-1-(4-hydroxy-7-trifluoromethoxy-quinazolin-2-yl)-piperidine-4-carboxylic acid benzylamide], 4.9 nM.
To `COc1cc2nc(N3CCC(Cc4ccc(F)cc4)(C(=O)NCc4ccccc4)CC3)nc(N)c2cc1OC` [Example 4, 1-(4-Amino-6,7-dimethoxy-quinazolin-2-yl)-4-(4-fluoro-benzyl)-piperidine-4-carboxylic acid benzylamide] belongs 37.3 nM; to `COc1cc2nc(N3CCC(Cc4ccccc4)(C(=O)NC4Cc5ccccc5C4O)CC3)nc(N)c2cc1OC` (stereo not drawn) [Example 38, 1-(4-Amino-6,7-dimethoxy-quinazolin-2-yl)-4-benzyl-piperidine-4-carboxylic acid (1-hydroxy-indan-2-yl)-amide], 7.5 nM; to `COc1cc2nc(N3CCC(Cc4ccccc4)(C(=O)NCc4ccccc4)CC3)nc(N)c2cc1OC` [Example 10, l-(4-Amino-6,7-dimethoxy-quinazolin-2-yl)-4-benzyl-piperidine-4-carboxylic acid benzylamide], 18.3 nM.
As for `COc1cc2nc(N3CCC(Cc4ccccc4)(C(=O)N(C)Cc4ccccc4)CC3)nc(O)c2cc1OC` [Example 54, 4-Benzyl-1-(4-hydroxy-6,7-dimethoxy-quinazolin-2-yl)-piperidine-4-carboxylic acid benzyl-methyl-amide], the inhibition constant (Ki) was 4.8 nM.
To `COc1cc2nc(N3CCC(CC4CCC4)(C(=O)NC4Cc5ccccc5C4)CC3)nc(O)c2cc1OC` [Example 79, 4-Cyclobutylmethyl-1-(4-hydroxy-6,7-dimethoxy-quinazolin-2-yl)-piperidine-4-carboxylic acid indan-2-ylamide] belongs 83 nM.
